{
  "source": "patent US12357645B2",
  "about": "“Drug combination for treatment of gastric cancer” (priority 2023, dated 2025)",
  "key": {"[1]": {"system": "patients with Advanced Gastrointestinal Tumors", "assay": "Phase 1 study of intravenous minnelide prodrug: safety", "type": "in vivo, human", "from_the_text": "Intravenous Minnelide Prodrug. Phase 1, Multi-Center, Open-Label, Dose-Escalation, Safety, Pharmacokinetic, and Pharmacodynamic Study of minnelide prodrug given intravenously daily for 21 days followed by 7 days off schedule in patients with Advanced Gastrointestinal Tumors. A second dosing schedule of minnelide prodrug given intravenously QD for 5 days with 2 days off for three weeks followed by a 7-day rest period was also explored during this study."}, "[2]": {"system": "MKN45, MKN28I-N-87", "assay": "Subcutaneous gastric cancer models, daily intraperitoneal minnelide prodrug", "type": "in vivo", "details": "0.2 mg/kg and 0.4 mg/kg"}, "[3]": {"system": "ovarian carcinoma cells", "assay": "Proliferation of ovarian carcinoma cells in vitro (activated with alkaline phosphatase)", "type": "cell-based", "details": "concentration-dependent, 50-200 nM"}, "[4]": {"system": "rats", "assay": "Definitive toxicity studies in rats (intravenous)", "type": "in vivo", "details": "definitive toxicity study", "procedure": "As clinical development of minnelide prodrug was initiated using an intravenous drug product, IND-enabling toxicology studies were conducted in both rats and dogs using the intravenous route of administration. The results of these studies supported first-in-human clinical trials involving intravenous administration of minnelide prodrug to patients with advanced solid tumors. To support the clinical development of a new solid oral dosage form of minnelide prodrug (capsules), exploratory and definitive toxicity studies were conducted with minnelide prodrug in solution via oral gavage in dogs. Taken together, the results of the intravenous and oral toxicity studies conducted with minnelide prodrug indicate that the target organ profile of minnelide prodrug is consistent in both species (rats and dogs) when administered by either route of administration (intravenous or oral)."}, "[5]": {"details": "cited from earlier work"}, "[6]": {"system": "patients with advanced gastric cancer (AGC)", "assay": "Phase 1 study of minnelide prodrug alone or with paclitaxel in advanced gastric cancer (NCT 05566834): safety, DLT, MTD, adverse events"}, "[7]": {"details": "Regimen A (PO daily x21 d/28 d), n = 11"}},
  "data": [
    {"smiles": "CC(C)[C@]12O[C@H]1[C@@H]1O[C@]13[C@]1(O[C@H]1C[C@H]1C4=C(CC[C@@]13C)C(=O)OC4)[C@@H]2OCOP(=O)([O-])[O-].[Na+].[Na+]", "note": "[minnelide prodrug, disodium; [(1S,2S,4S,5S,7S,8R,9R,11S, 13S)-1-methyl-17-oxo-7-propan-2-yl-3,6,10,16-tetraoxaheptacyclo [11.7.0.0^2,4.0^2,9.0^5,7.0^9,11.0^14,18]icos-14 (18)-en-8-yl]oxymethyl phosphate]", "values": [
      {"measurement": "Anemia and thrombocytopenia Grade 3 and 4 (drug related), share of patients", "setting": "[1]", "value": 22, "unit": "%"},
      {"measurement": "Serious Adverse Events related to the study drug", "setting": "[1]", "value": "six"},
      {"measurement": "Serious Adverse Events, number", "setting": "[1]", "value": 28},
      {"measurement": "TEAE cases considered DLTs", "setting": "[1]", "value": "two"},
      {"measurement": "other possibly related side effects of any grade (nausea, vomiting, diarrhea, constipation, anorexia, stomatitis, cerebellar toxicity, embolism, dyspnea), share of patients", "setting": "[1]", "value": "≤ 3", "unit": "%"},
      {"measurement": "patients with Serious Adverse Events", "setting": "[1]", "value": 17},
      {"measurement": "patients with at least 1 AE considered related to the study drug", "setting": "[1]", "value": 32},
      {"measurement": "patients with neutropenic fever and neutropenic infection (drug related)", "setting": "[1]", "value": "three"},
      {"measurement": "deaths in the study", "setting": "[1]; 42 patients dosed, after study drug ended, within 30-day follow-up, not related to study drug", "value": 6},
      {"measurement": "patients who discontinued study drug due to TEAEs", "setting": "[1]; all Grade 3", "value": 3},
      {"measurement": "resolution of grade 3 and 4 neutropenia after not receiving treatment", "setting": "[1]; all dose levels", "value": "within a couple of days"},
      {"measurement": "tumor weights and volumes", "setting": "[2]", "value": "markedly decreased tumor weights and volumes"},
      {"measurement": "proliferation", "setting": "[3]", "value": "reduced the proliferation"},
      {"measurement": "histopathology of reproductive tract tissues, males and females", "setting": "[4]", "value": "adverse, largely irreversible histopathological effects"},
      {"measurement": "aqueous solubility", "setting": "[5]", "value": "greater aqueous solubility"},
      {"measurement": "Grade 5 AEs caused by gastric cancer progression, number", "setting": "[6]; Regimen A", "value": 3},
      {"measurement": "minnelide prodrug-related AE abdominal pain", "setting": "[6]; Regimen A", "value": 27.3, "unit": "%"},
      {"measurement": "minnelide prodrug-related AE anorexia", "setting": "[6]; Regimen A", "value": 54.5, "unit": "%"},
      {"measurement": "minnelide prodrug-related AE nausea", "setting": "[6]; Regimen A", "value": 45.5, "unit": "%"},
      {"measurement": "Minnelide-related AE Abdominal pain, Any", "setting": "[6]; [7]", "value": "3 (27.3) n (%)"},
      {"measurement": "Minnelide-related AE Abdominal pain, ≥Gr 3", "setting": "[6]; [7]", "value": "2 (18.2) n (%)"},
      {"measurement": "Minnelide-related AE Anorexia, Any", "setting": "[6]; [7]", "value": "6 (54.5)/— ^ n (%)"},
      {"measurement": "Minnelide-related AE Fatigue, Any", "setting": "[6]; [7]", "value": "2 (18.2)/— ^ n (%)"},
      {"measurement": "Minnelide-related AE Nausea, Any", "setting": "[6]; [7]", "value": "5 (45.5) n (%)"},
      {"measurement": "Minnelide-related AE Nausea, ≥Gr 3", "setting": "[6]; [7]", "value": "2 (18.2) n (%)"},
      {"measurement": "Minnelide-related AE Neutropenia, Any", "setting": "[6]; [7]", "value": "1 (9.1)/1 (9.1) n (%)"},
      {"measurement": "Minnelide-related AE Neutropenia, ≥Gr 3", "setting": "[6]; [7]", "value": "1 (9.1)/1 (9.1) n (%)"},
      {"measurement": "Minnelide-related AE Overall, Any", "setting": "[6]; [7]", "value": "8 (72.7) n (%)"},
      {"measurement": "Minnelide-related AE Vomiting, Any", "setting": "[6]; [7]", "value": "1 (9.1)/1 (9.1) n (%)"},
      {"measurement": "Minnelide-related AE Vomiting, ≥Gr 3", "setting": "[6]; [7]", "value": "1 (9.1)/1 (9.1) n (%)"},
      {"measurement": "TRAE Abdominal pain, Any", "setting": "[6]; [7]", "value": "5 (45.5) n (%)"},
      {"measurement": "TRAE Abdominal pain, ≥Gr 3", "setting": "[6]; [7]", "value": "2 (18.2) n (%)"},
      {"measurement": "TRAE Anemia, Any", "setting": "[6]; [7]", "value": "2 (18.2)/2 (18.2) n (%)"},
      {"measurement": "TRAE Anemia, ≥Gr 3", "setting": "[6]; [7]", "value": "2 (18.2)/2 (18.2) n (%)"},
      {"measurement": "TRAE Annualar scaly plaques, Any", "setting": "[6]; [7]", "value": "1 (9.1)/— n (%)"},
      {"measurement": "TRAE Anorexia, Any", "setting": "[6]; [7]", "value": "8 (72.7)/— n (%)"},
      {"measurement": "TRAE Azotemia, Any", "setting": "[6]; [7]", "value": "1 (9.1)/— n (%)"},
      {"measurement": "TRAE Cancer pain, Any", "setting": "[6]; [7]", "value": "3 (27.3) n (%)"},
      {"measurement": "TRAE Cancer pain, ≥Gr 3", "setting": "[6]; [7]", "value": "1 (9.1) n (%)"},
      {"measurement": "TRAE Cancer progression, Any", "setting": "[6]; [7]", "value": "3 (27.3)/3 (27.3) n (%)"},
      {"measurement": "TRAE Cancer progression, ≥Gr 3", "setting": "[6]; [7]", "value": "3 (27.3)/3 (27.3) n (%)"},
      {"measurement": "TRAE Constipation, Any", "setting": "[6]; [7]", "value": "1 (9.1)/— n (%)"},
      {"measurement": "TRAE Decreased vision, Any", "setting": "[6]; [7]", "value": "1 (9.1)/— n (%)"},
      {"measurement": "TRAE Depression, Any", "setting": "[6]; [7]", "value": "1 (9.1)/— n (%)"},
      {"measurement": "TRAE Dyspepsia, Any", "setting": "[6]; [7]", "value": "1 (9.1)/— n (%)"},
      {"measurement": "TRAE Dysuria, Any", "setting": "[6]; [7]", "value": "1 (9.1)/— n (%)"},
      {"measurement": "TRAE Fatigue, Any", "setting": "[6]; [7]", "value": "3 (27.3)/— n (%)"},
      {"measurement": "TRAE Gastric stenosis, Any", "setting": "[6]; [7]", "value": "1 (9.1)/1 (9.1) n (%)"},
      {"measurement": "TRAE Gastric stenosis, ≥Gr 3", "setting": "[6]; [7]", "value": "1 (9.1)/1 (9.1) n (%)"},
      {"measurement": "TRAE Hypophosphatemi, Any", "setting": "[6]; [7]", "value": "1 (9.1)/1 (9.1) n (%)"},
      {"measurement": "TRAE Hypophosphatemi, ≥Gr 3", "setting": "[6]; [7]", "value": "1 (9.1)/1 (9.1) n (%)"},
      {"measurement": "TRAE Nausea, Any", "setting": "[6]; [7]", "value": "6 (54.5) n (%)"},
      {"measurement": "TRAE Nausea, ≥Gr 3", "setting": "[6]; [7]", "value": "2 (18.2) n (%)"},
      {"measurement": "TRAE Neutropenia, Any", "setting": "[6]; [7]", "value": "1 (9.1)/1 (9.1) n (%)"},
      {"measurement": "TRAE Neutropenia, ≥Gr 3", "setting": "[6]; [7]", "value": "1 (9.1)/1 (9.1) n (%)"},
      {"measurement": "TRAE Overall, Any", "setting": "[6]; [7]", "value": "11 (100.0) n (%)"},
      {"measurement": "TRAE Overall, ≥Gr 3", "setting": "[6]; [7]", "value": "8 (72.7) n (%)"},
      {"measurement": "TRAE Tachycardia, Any", "setting": "[6]; [7]", "value": "1 (9.1)/— n (%)"},
      {"measurement": "TRAE Urinary tract infection, Any", "setting": "[6]; [7]", "value": "1 (9.1)/— n (%)"},
      {"measurement": "TRAE Vomiting, Any", "setting": "[6]; [7]", "value": "3 (27.3) n (%)"},
      {"measurement": "TRAE Vomiting, ≥Gr 3", "setting": "[6]; [7]", "value": "1 (9.1) n (%)"},
      {"measurement": "dose-limiting toxicities (DLTs), number", "setting": "[6]; Regimen A, dose level 3, 1.5 mg, Grade 3 abdominal pain", "value": "two and Two"},
      {"measurement": "Minnelide-related AE Abdominal pain, Any", "setting": "[6]; Total Regimens A-C, n = 36", "value": "14 (38.9) n (%)"},
      {"measurement": "Minnelide-related AE Abdominal pain, ≥Gr 3", "setting": "[6]; Total Regimens A-C, n = 36", "value": "4 (11.1) n (%)"},
      {"measurement": "Minnelide-related AE Anorexia, Any", "setting": "[6]; Total Regimens A-C, n = 36", "value": "15 (41.7)/— n (%)"},
      {"measurement": "Minnelide-related AE Constipation, Any", "setting": "[6]; Total Regimens A-C, n = 36", "value": "1 (2.8)/— n (%)"},
      {"measurement": "Minnelide-related AE Fatigue, Any", "setting": "[6]; Total Regimens A-C, n = 36", "value": "4 (11.1)/— n (%)"},
      {"measurement": "Minnelide-related AE General weakness, Any", "setting": "[6]; Total Regimens A-C, n = 36", "value": "1 (2.8)/— n (%)"},
      {"measurement": "Minnelide-related AE Nausea, Any", "setting": "[6]; Total Regimens A-C, n = 36", "value": "10 (27.8) n (%)"},
      {"measurement": "Minnelide-related AE Nausea, ≥Gr 3", "setting": "[6]; Total Regimens A-C, n = 36", "value": "2(5.6) n (%)"}
    ]}
  ]
}
